Read-outs that look alike come from different tables or passages of the source.
Key:
Odc1p = target: T1, Odc1p (Saccharomyces cerevisiae, UniProt Q03028); assay: Effect of inhibitors and external compounds on the [14C]oxoglutarate/oxoglutarate exchange by proteoliposomes reconstituted with Odc1p; format: biochemical; conditions: for Inhibition (%) of [14C]oxoglutarate/oxoglutarate exchange: 20 mM internal oxoglutarate, 0.4 mM [14C]oxoglutarate, 45 seconds, inhibitors 4 mM, except mercurials 10 μM, carboxyatractyloside 0.1 mM, N-ethylmaleimide and α-cyanocinnamate 2 mM; for inhibition of [14C]oxoglutarate/oxoglutarate exchange (in words): Table III
T1 construct: made in house; host or cells: S. cerevisiae odc1Δodc2Δ (YPH499 background) carrying pYES2-based pODC1; purified from mitochondria on Ni-NTA agarose
T1 sequence (Q03028 1-310): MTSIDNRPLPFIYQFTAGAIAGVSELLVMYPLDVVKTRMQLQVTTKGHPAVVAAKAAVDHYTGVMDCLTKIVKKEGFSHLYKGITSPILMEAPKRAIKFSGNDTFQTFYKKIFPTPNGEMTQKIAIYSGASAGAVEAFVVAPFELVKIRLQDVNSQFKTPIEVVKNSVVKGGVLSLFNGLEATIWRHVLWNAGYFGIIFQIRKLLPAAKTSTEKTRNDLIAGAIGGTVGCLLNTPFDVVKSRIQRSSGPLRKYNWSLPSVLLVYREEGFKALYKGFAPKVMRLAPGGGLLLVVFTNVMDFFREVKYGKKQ
Protocol: FIG. 5. Effect of dicarboxylates and 2-oxodicarboxylates with different carbon chain length on the rate of [^14C]oxoglutarate uptake into proteoliposomes reconstituted with recombinant Odc1p. Proteoliposomes were preloaded with 20 mM oxoglutarate and reconstituted with recombinant Odc1p. Transport was initiated by the addition of 0.4 mM [^14C]oxoglutarate and terminated after 45 seconds. Oxalate, malonate, succinate, glutarate, adipate, pimelate, suberate (▪) and the corresponding 2-oxoacids (●) were added simultaneously with [1^4C]oxoglutarate at 4.0 mM concentration.
(§1) Reconstitution of the ODC proteins into liposomes—Purified ODC proteins were reconstituted by cyclic removal of the detergent with a hydrophobic column (13). The composition of the initial mixture used for reconstitution was: 200 μl of purified isoform (0.3-0.4 μg of protein), 70 μl of 10% Triton X-114, 100 μl of 10% phospholipids in the form of sonicated liposomes, 20 mM oxoglutarate (except where otherwise indicated), 10 mM Pipes (pH 7.0), 0.7 mg of cardiolipin (Sigma) and water to a final volume of 700 μl. These components were mixed thoroughly, and the mixture was recycled 13 times through an Amberlite column (Supelco) (3.0 cm×0.5 cm) preequilibrated with a buffer containing 10 mM Pipes (pH 7.0) and with the substrate at the same concentration as in the starting mixture. All operations were performed at 4° C., except the passages through Amberlite, which were carried out at room temperature.
(§2) External substrate was removed from proteoliposomes on a Sephadex G-75 column preequilibrated with buffer F (50 mM NaCl and 10 mM PIPES, pH 7.0). Transport at 25° C. was started by adding [^14C]oxoglutarate (unless otherwise indicated) to the proteoliposomes, and terminated by addition of 30 mM pyridoxal 5′-phosphate and 10 mM bathophenanthroline (the “inhibitor-stop” method (13)). In controls, inhibitors were added with the labelled substrate. The external radioactivity was removed on Sephadex G-75 and the internal radioactivity was measured. […] The initial rate of transport was calculated in mmol/min per g protein from the time course of isotope equilibration (13). Various other transport activities were also assayed by the inhibitor-stop method. For efflux measurements, the internal substrate pool of the proteoliposomes was made radioactive by carrier-mediated exchange equilibration (13) with 0.1 mM [^14C]oxoglutarate added at high specific radioactivity. After 60 min, the residual external radioactivity was removed by passing the proteoliposomes again through a column of Sephadex G-75. Efflux was started by adding unlabelled external substrate or buffer F alone and terminated by adding the inhibitors indicated above.
(§3) In addition, the ability of non-radioactive potential substrates to inhibit the oxoglutarate/oxoglutarate exchange was examined.
Proteoliposomes were preloaded internally with 20 mM oxoglutarate and transport was initiated by the addition of 0.4 mM [^14C]oxoglutarate.

Odc2p = target: T2, Odc2p (Saccharomyces cerevisiae, UniProt Q99297); assay: Effect of inhibitors and external compounds on the [14C]oxoglutarate/oxoglutarate exchange by proteoliposomes reconstituted with Odc2p; format: biochemical; conditions: for Inhibition (%) of [14C]oxoglutarate/oxoglutarate exchange: 20 mM internal oxoglutarate, 0.4 mM [14C]oxoglutarate, 45 seconds, inhibitors 4 mM, except mercurials 10 μM, carboxyatractyloside 0.1 mM, N-ethylmaleimide and α-cyanocinnamate 2 mM; for inhibition of [14C]oxoglutarate/oxoglutarate exchange (in words): Table III
T2 construct: made in house; host or cells: S. cerevisiae odc1Δodc2Δ (YPH499 background) carrying pYES2-based pODC2; purified from mitochondria on Ni-NTA agarose
T2 sequence (Q99297 1-307): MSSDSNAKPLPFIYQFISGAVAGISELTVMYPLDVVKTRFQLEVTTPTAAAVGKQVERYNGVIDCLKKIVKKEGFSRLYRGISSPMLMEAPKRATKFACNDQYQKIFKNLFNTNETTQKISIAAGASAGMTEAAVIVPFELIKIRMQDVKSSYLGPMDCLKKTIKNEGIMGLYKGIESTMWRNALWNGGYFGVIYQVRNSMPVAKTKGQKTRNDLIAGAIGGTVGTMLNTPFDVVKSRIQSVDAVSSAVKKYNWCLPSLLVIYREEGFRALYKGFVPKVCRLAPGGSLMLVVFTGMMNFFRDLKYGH
Protocol: as §1, §2, §3
Proteoliposomes were preloaded internally with 20 mM oxoglutarate and transport was initiated by the addition of 0.4 mM [^14C]oxoglutarate. The incubation time was 45 seconds. Thiol reagents and α-cyanocinnamate were added 2 min before the labelled substrate; the other inhibitors and external substrates were added together with [^14C]oxoglutarate. The final concentration of the inhibitors was 4 mM, except for mercurials (10 μM), carboxyatractyloside (0.1 mM), N-ethylmaleimide and α-cyanocinnamate (2 mM).

[1] = Odc1p, added with 0.4 mM [14C]oxoglutarate, 4.0 mM in FIG. 5, partly data not shown

O=C(O)c1cccc(C(=O)O)c1C(=O)O [1,2,3-Benzenetricarboxylate]
Inhibition (%) of [14C]oxoglutarate/oxoglutarate exchange (Odc1p; Odc1p): 41%
inhibition of [14C]oxoglutarate/oxoglutarate exchange (in words) (Odc1p; Odc1p): rather mild inhibitory effect
Inhibition (%) of [14C]oxoglutarate/oxoglutarate exchange (Odc2p; Odc2p): 37%
inhibition of [14C]oxoglutarate/oxoglutarate exchange (in words) (Odc2p; Odc2p): rather mild inhibitory effect

[Cl][Hg][Cl] [HgCl2, mercuric chloride]
Inhibition (%) of [14C]oxoglutarate/oxoglutarate exchange (Odc1p; Odc1p): 100%
inhibition of [14C]oxoglutarate/oxoglutarate exchange (in words) (Odc1p; Odc1p): inhibited strongly
Inhibition (%) of [14C]oxoglutarate/oxoglutarate exchange (Odc2p; Odc2p): 98%
inhibition of [14C]oxoglutarate/oxoglutarate exchange (in words) (Odc2p; Odc2p): inhibited strongly

NCCCC[C@H](N)C(=O)O [lysine]
effect of non-radioactive potential substrates on the rate of oxoglutarate uptake (in words) (Odc1p; [1]): no effect
effect of non-radioactive potential substrates on the rate of oxoglutarate uptake (in words) (Odc2p; Odc2p, data not shown): no effect

CC(=O)CCCC(=O)O [5-oxohexanoate]
effect of oxomonocarboxylates on the rate of uptake of 0.4 mM oxoglutarate (in words) (Odc1p; Odc1p, 8 mM, 20 times greater than the substrate, data not shown): did not influence
effect of oxomonocarboxylates on the rate of uptake of 0.4 mM oxoglutarate (in words) (Odc2p; Odc2p, 8 mM, 20 times greater than the substrate, data not shown): did not influence

C[C@H](N)C(=O)O [alanine]
effect of non-radioactive potential substrates on the rate of oxoglutarate uptake (in words) (Odc1p; [1]): no effect
effect of non-radioactive potential substrates on the rate of oxoglutarate uptake (in words) (Odc2p; Odc2p, data not shown): no effect

O=C(O)[C@H](O)[C@@H](O)C(=O)O [L-tartrate]
effect of non-radioactive potential substrates on the rate of oxoglutarate uptake (in words) (Odc1p; [1]): more efficiently than succinate
effect of non-radioactive potential substrates on the rate of oxoglutarate uptake (in words) (Odc2p; Odc2p, data not shown): more efficiently than succinate

hydroxyglutarate
effect of non-radioactive potential substrates on the rate of oxoglutarate uptake (in words) (Odc1p): slightly less effective than glutarate
effect of non-radioactive potential substrates on the rate of oxoglutarate uptake (in words) (Odc2p): slightly less effective than glutarate

NCC(=O)O [glycine]
effect of non-radioactive potential substrates on the rate of oxoglutarate uptake (in words) (Odc1p; [1]): no effect
effect of non-radioactive potential substrates on the rate of oxoglutarate uptake (in words) (Odc2p; Odc2p, data not shown): no effect

NC(=O)C[C@H](N)C(=O)O [asparagine]
effect of non-radioactive potential substrates on the rate of oxoglutarate uptake (in words) (Odc1p; [1]): no effect
effect of non-radioactive potential substrates on the rate of oxoglutarate uptake (in words) (Odc2p; Odc2p, data not shown): no effect

O=C(O)[C@@H](O)[C@H](O)C(=O)O [D-tartrate]
effect of non-radioactive potential substrates on the rate of oxoglutarate uptake (in words) (Odc1p; [1]): more efficiently than succinate
effect of non-radioactive potential substrates on the rate of oxoglutarate uptake (in words) (Odc2p; Odc2p, data not shown): more efficiently than succinate

C[C@@H](O)[C@H](N)C(=O)O [threonine]
effect of non-radioactive potential substrates on the rate of oxoglutarate uptake (in words) (Odc1p; [1]): no effect
effect of non-radioactive potential substrates on the rate of oxoglutarate uptake (in words) (Odc2p; Odc2p, data not shown): no effect

O=C(O)CC(O)C(=O)O (stereo not shown) [malate]
increase of the extent of inhibition of oxoglutarate uptake with respect to the corresponding dicarboxylate (Odc1p; Odc1p, C4 hydroxydicarboxylate versus C4 dicarboxylate, not shown): about 10 fold
increase of the extent of inhibition of oxoglutarate uptake with respect to the corresponding dicarboxylate (Odc2p; Odc2p, C4 hydroxydicarboxylate versus C4 dicarboxylate, not shown): about 10 fold

O=S(=O)(O)c1cc[c]([Hg][Cl])cc1 [p-Chloromercuriphenylsulfonate]
Inhibition (%) of [14C]oxoglutarate/oxoglutarate exchange (Odc1p; Odc1p): 98%
inhibition of [14C]oxoglutarate/oxoglutarate exchange (in words) (Odc1p; Odc1p): inhibited strongly
Inhibition (%) of [14C]oxoglutarate/oxoglutarate exchange (Odc2p; Odc2p): 100%
inhibition of [14C]oxoglutarate/oxoglutarate exchange (in words) (Odc2p; Odc2p): inhibited strongly

N#C/C(=C\c1ccccc1)C(=O)O [α-Cyanocinnamate]
Inhibition (%) of [14C]oxoglutarate/oxoglutarate exchange (Odc1p; Odc1p): 86%
inhibition of [14C]oxoglutarate/oxoglutarate exchange (in words) (Odc1p; Odc1p): inhibited strongly
Inhibition (%) of [14C]oxoglutarate/oxoglutarate exchange (Odc2p; Odc2p): 80%
inhibition of [14C]oxoglutarate/oxoglutarate exchange (in words) (Odc2p; Odc2p): inhibited strongly

CCCCC(C(=O)O)C(=O)O [Butylmalonate]
Inhibition (%) of [14C]oxoglutarate/oxoglutarate exchange (Odc1p; Odc1p): 118%
inhibition of [14C]oxoglutarate/oxoglutarate exchange (in words) (Odc1p; Odc1p): rather poorly
Inhibition (%) of [14C]oxoglutarate/oxoglutarate exchange (Odc2p; Odc2p): 25%
inhibition of [14C]oxoglutarate/oxoglutarate exchange (in words) (Odc2p; Odc2p): rather poorly

C=C1[C@@H]2CC[C@H]3[C@]4(C)C[C@H](O[C@@H]5O[C@H](CO)[C@@H](OS(=O)(=O)O)[C@H](OS(=O)(=O)O)[C@H]5OC(=O)CC(C)C)CC(C(=O)O)(C(=O)O)[C@H]4CC[C@]3(C2)[C@H]1O [Carboxyatractyloside]
Inhibition (%) of [14C]oxoglutarate/oxoglutarate exchange (Odc1p; Odc1p): 7%
inhibition of [14C]oxoglutarate/oxoglutarate exchange (in words) (Odc1p; Odc1p): little or no effect
Inhibition (%) of [14C]oxoglutarate/oxoglutarate exchange (Odc2p; Odc2p): 10%
inhibition of [14C]oxoglutarate/oxoglutarate exchange (in words) (Odc2p; Odc2p): little or no effect

NC(C(=O)O)C(O)C(=O)O (racemic) [DL-Threo-hydroxyaspartate]
effect of non-radioactive potential substrates on the rate of oxoglutarate uptake (in words) (Odc1p; [1]): no affect
effect of non-radioactive potential substrates on the rate of oxoglutarate uptake (in words) (Odc2p; Odc2p, data not shown): no affect

O=C(O)C(O)C(=O)O [tartronate]
effect of non-radioactive potential substrates on the rate of oxoglutarate uptake (in words) (Odc1p; [1]): completely ineffective
effect of non-radioactive potential substrates on the rate of oxoglutarate uptake (in words) (Odc2p; Odc2p, data not shown): completely ineffective

CCN1C(=O)C=CC1=O [N-Ethylmaleimide]
Inhibition (%) of [14C]oxoglutarate/oxoglutarate exchange (Odc1p; Odc1p): 65%
inhibition of [14C]oxoglutarate/oxoglutarate exchange (in words) (Odc1p; Odc1p): inhibited considerably
Inhibition (%) of [14C]oxoglutarate/oxoglutarate exchange (Odc2p; Odc2p): 43%
inhibition of [14C]oxoglutarate/oxoglutarate exchange (in words) (Odc2p; Odc2p): inhibited considerably

N[C@@H](CO)C(=O)O [serine]
effect of non-radioactive potential substrates on the rate of oxoglutarate uptake (in words) (Odc1p; [1]): no effect
effect of non-radioactive potential substrates on the rate of oxoglutarate uptake (in words) (Odc2p; Odc2p, data not shown): no effect

COC(CNC(=O)c1ccccc1OCC(=O)O)[CH2][Hg][OH] (stereo not shown) [Mersalyl]
inhibition of [14C]oxoglutarate/oxoglutarate exchange (in words) (Odc1p; Odc1p): inhibited strongly
Inhibition (%) of [14C]oxoglutarate/oxoglutarate exchange (Odc2p; Odc2p): 100%
inhibition of [14C]oxoglutarate/oxoglutarate exchange (in words) (Odc2p; Odc2p): inhibited strongly

CC(C)[C@H](N)C(=O)O [valine]
effect of non-radioactive potential substrates on the rate of oxoglutarate uptake (in words) (Odc1p; [1]): no effect
effect of non-radioactive potential substrates on the rate of oxoglutarate uptake (in words) (Odc2p; Odc2p, data not shown): no effect

N=C(N)NCCC[C@H](N)C(=O)O [arginine]
effect of non-radioactive potential substrates on the rate of oxoglutarate uptake (in words) (Odc1p): no effect
effect of non-radioactive potential substrates on the rate of oxoglutarate uptake (in words) (Odc2p): no effect

O=C(O)CC(C(=O)O)c1ccccc1 (stereo not shown) [Phenylsuccinate]
Inhibition (%) of [14C]oxoglutarate/oxoglutarate exchange (Odc1p; Odc1p): 23%
inhibition of [14C]oxoglutarate/oxoglutarate exchange (in words) (Odc1p; Odc1p): rather poorly
Inhibition (%) of [14C]oxoglutarate/oxoglutarate exchange (Odc2p; Odc2p): 22%
inhibition of [14C]oxoglutarate/oxoglutarate exchange (in words) (Odc2p; Odc2p): rather poorly

N[C@@H](Cc1c[nH]cn1)C(=O)O [histidine]
effect of non-radioactive potential substrates on the rate of oxoglutarate uptake (in words) (Odc1p; [1]): no effect
effect of non-radioactive potential substrates on the rate of oxoglutarate uptake (in words) (Odc2p; Odc2p, data not shown): no effect
